Results from patent publication US8518896B2, “Treatment of cancers of the blood using selected glycomimetic compounds” (Glycomimetics, Inc., priority 2008, dated 2013).

Tested on: neutrophils
Conditions: mice; 5-FU 150 mg/kg i.p. or cyclophosphamide 300 mg/kg i.p.; lasts for at least one week
Description: At varying time points after treatment, blood samples are taken from the mice and analyzed for different cell types including neutrophils.
As diagrammed in FIG. 10, mice are treated with Compound #2 for 14 days by intraperitoneal injections (50 mg/kg) twice a day. On day 12 within this treatment period, a cohort of mice receives an injection of a chemotherapeutic drug; either 5-fluorouracil (150 mg/kg i.p.) or cyclophosphamide (300 mg/kg i.p.). On the third day after treatment with Compound #2, blood is obtained by cardiac puncture from one cohort of mice to determine a complete blood count (CBC). Other cohorts of mice are bled and analyzed (CBC) on days 5, 7, 9 and 15 after Compound #2 treatment.

## O=P1(N(CCCl)CCCl)NCCCO1 (stereo not shown) [cyclophosphamide]
  neutropenia caused by the chemotherapeutic drug: severe neutropenia
